Measured values: patent publication US20200024278A1, “COMPOSITION COMPRISING ANTIBIOTIC COMPOUND AND AN HETEROCYCLIC COMPOUND AND THEIR USE IN PREVENTING OR TREATING BACTERIAL INFECTIONS” (MUTABILIS, priority 2016, published 2020)

Tests used:
Assay in all cases: MIC, broth microdilution (CLSI), substance alone or ATB combined with compound at 4 or 8 μg/mL
[1] = system: KPN 6299; assay type: cell-based, K. pneumoniae
Summary of the method: (§1)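 Potentiation format: antibiotic dilution series run with test compound held at 4 or 8 μg/mL, alongside compound-alone MICs. Broth microdilution per CLSI in ca-MHB, 16-20 h at 35° C.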

[2] = system: KPN UFR42; assay type: cell-based, K. pneumoniae; conditions: KPN UFR42
Summary of the method: as §1

[3] = system: SPN 49619; assay type: cell-based, S. pneumoniae; conditions: SPN 49619
Summary of the method: as §1

[4] = system: PAE UFR48; assay type: cell-based, P. aeruginosa; conditions: PAE UFR48
Summary of the method: as §1

[5] = system: PAE 105250; assay type: cell-based, P. aeruginosa; conditions: PAE 105250
Summary of the method: as §1

[6] = system: PAE UFR90; assay type: cell-based, P. aeruginosa; conditions: PAE UFR90
Summary of the method: as §1

[7] = Pseudomonas aeruginosa, antibiotic alone, read-out: MIC ATB alone

CC1(C)S[C@@H]2[C@H](NC(=O)[C@H](N)c3ccc(O)cc3)C(=O)N2[C@H]1C(=O)O [AMX, Amoxicillin, reference compound]
MIC ATB combined with Example 1 @8 μg/ml ([1]; with Example 1 at 8 μg/ml): >32 µg/mL
MIC ATB combined with Example 7 @8 μgml ([1]; with Example 7 at 8 μg/ml): 0.5 µg/mL
MIC ATB combined with Example 9 @4 μg/ml ([1]; with Example 9 @4 μg/ml): <=0.5 μg/mL
MIC ATB combined with Example 9 @4 μg/ml ([1]; with Example 9 at 4 μg/ml): <0.031 µg/mL
MIC ATB combined with Example 11 @8 μg/ml ([1]; with Example 11 at 8 μg/ml): <0.031 µg/mL
MIC ATB combined with Example 12 @8 μg/ml ([1]; with Example 12 at 8 μg/ml): <0.031 µg/mL
MIC ATB combined with Example 13 @8 μg/ml ([1]; with Example 13 at 8 μg/ml): 2 µg/mL
MIC ATB combined with Example 14 @8 μg/ml ([1]; with Example 14 at 8 μg/ml): <0.031 µg/mL
MIC ATB combined with Example 15 @4 μgml ([1]; with Example 15 at 4 μg/ml): <0.031 µg/mL
MIC ATB combined with Example 16 @4 μg/ml ([1]; with Example 16 at 4 μg/ml): <0.031 µg/mL
MIC ATB combined with Example 1 @8 μg/ml ([2]; with Example 1 @8 μg/ml): >32 µg/mL
MIC ATB combined with Example 1 @8 μg/ml ([2]; with Example 1 at 8 μg/ml): >32 µg/mL
MIC ATB combined with Example 7 @8 μgml ([2]; with Example 7 at 8 μg/ml): >32 µg/mL
MIC ATB combined with Example 9 @4 μg/ml ([2]; with Example 9 @4 μg/ml): >32 µg/mL
MIC ATB combined with Example 9 @4 μg/ml ([2]; with Example 9 at 4 μg/ml): >32 µg/mL
MIC ATB combined with Example 11 @8 μg/ml ([2]; with Example 11 at 8 μg/ml): <0.031 µg/mL
MIC ATB combined with Example 12 @8 μg/ml ([2]; with Example 12 at 8 μg/ml): <0.031 µg/mL
MIC ATB combined with Example 13 @8 μg/ml ([2]; with Example 13 at 8 μg/ml): >32 µg/mL
MIC ATB combined with Example 14 @8 μg/ml ([2]; with Example 14 at 8 μg/ml): <0.031 µg/mL
MIC ATB combined with Example 15 @4 μgml ([2]; with Example 15 at 4 μg/ml): <0.031 µg/mL
MIC ATB combined with Example 16 @4 μg/ml ([2]; with Example 16 at 4 μg/ml): <0.031 µg/mL
MIC ([2]; Klebsiella pneumoniae, antibiotic alone, read-out: MIC ATB alone): > 256 µg/mL
MIC ATB combined with Example 7 @8 μgml ([3]; with Example 7 at 8 μg/ml): <=0.031 μg/mL
MIC ATB combined with Example 9 @4 μg/ml ([3]; with Example 9 @4 μg/ml): <0.031 µg/mL
MIC ATB combined with Example 9 @4 μg/ml ([3]; with Example 9 at 4 μg/ml): <0.031 µg/mL
MIC ATB combined with Example 11 @8 μg/ml ([3]; with Example 11 at 8 μg/ml): <0.031 µg/mL
MIC ATB combined with Example 12 @8 μg/ml ([3]; with Example 12 at 8 μg/ml): <0.031 µg/mL
MIC ATB combined with Example 13 @8 μg/ml ([3]; with Example 13 at 8 μg/ml): <=0.031 μg/mL
MIC ATB combined with Example 14 @8 μg/ml ([3]; with Example 14 at 8 μg/ml): <0.031 µg/mL
MIC ATB combined with Example 15 @4 μgml ([3]; with Example 15 at 4 μg/ml): <0.031 µg/mL
MIC ATB combined with Example 16 @4 μg/ml ([3]; with Example 16 at 4 μg/ml): <0.031 µg/mL
MIC ATB combined with Example 1 @8 μg/ml ([4]; with Example 1 @8 μg/ml): <0.031 µg/mL
MIC ATB combined with Example 1 @8 μg/ml ([4]; with Example 1 at 8 μg/ml): <0.031 µg/mL
MIC ATB combined with Example 7 @8 μgml ([4]; with Example 7 at 8 μg/ml): >32 µg/mL
MIC ATB combined with Example 9 @4 μg/ml ([4]; with Example 9 @4 μg/ml): >32 µg/mL
MIC ATB combined with Example 9 @4 μg/ml ([4]; with Example 9 at 4 μg/ml): >32 µg/mL
MIC ATB combined with Example 11 @8 μg/ml ([4]; with Example 11 at 8 μg/ml): >32 µg/mL
MIC ATB combined with Example 12 @8 μg/ml ([4]; with Example 12 at 8 μg/ml): >32 µg/mL
MIC ATB combined with Example 13 @8 μg/ml ([4]; with Example 13 at 8 μg/ml): >32 µg/mL
MIC ATB combined with Example 14 @8 μg/ml ([4]; with Example 14 at 8 μg/ml): >32 µg/mL
MIC ATB combined with Example 15 @4 μgml ([4]; with Example 15 at 4 μg/ml): >32 µg/mL
MIC ATB combined with Example 16 @4 μg/ml ([4]; with Example 16 at 4 μg/ml): >32 µg/mL
MIC [4, 7]: > 1020 µg/mL
MIC ATB combined with Example 7 @8 μgml ([5]; with Example 7 at 8 μg/ml): >32 µg/mL
MIC ATB combined with Example 9 @4 μg/ml ([5]; with Example 9 @4 μg/ml): >32 µg/mL
MIC ATB combined with Example 9 @4 μg/ml ([5]; with Example 9 at 4 μg/ml): >32 µg/mL
MIC ATB combined with Example 11 @8 μg/ml ([5]; with Example 11 at 8 μg/ml): >32 µg/mL
MIC ATB combined with Example 12 @8 μg/ml ([5]; with Example 12 at 8 μg/ml): >32 µg/mL
MIC ATB combined with Example 13 @8 μg/ml ([5]; with Example 13 at 8 μg/ml): >32 µg/mL
MIC ATB combined with Example 14 @8 μg/ml ([5]; with Example 14 at 8 μg/ml): >32 µg/mL
MIC ATB combined with Example 15 @4 μgml ([5]; with Example 15 at 4 μg/ml): >32 µg/mL
MIC ATB combined with Example 16 @4 μg/ml ([5]; with Example 16 at 4 μg/ml): >32 µg/mL
MIC [5, 7]: > 1020 µg/mL
MIC ATB combined with Example 1 @8 μg/ml ([6]; with Example 1 @8 μg/ml): <0.031 µg/mL
MIC ATB combined with Example 1 @8 μg/ml ([6]; with Example 1 at 8 μg/ml): <0.031 µg/mL
MIC ATB combined with Example 7 @8 μgml ([6]; with Example 7 at 8 μg/ml): >32 µg/mL
MIC ATB combined with Example 9 @4 μg/ml ([6]; with Example 9 @4 μg/ml): >32 µg/mL
MIC ATB combined with Example 9 @4 μg/ml ([6]; with Example 9 at 4 μg/ml): >32 µg/mL
MIC ATB combined with Example 11 @8 μg/ml ([6]; with Example 11 at 8 μg/ml): >32 µg/mL
MIC ATB combined with Example 12 @8 μg/ml ([6]; with Example 12 at 8 μg/ml): >32 µg/mL
MIC ATB combined with Example 13 @8 μg/ml ([6]; with Example 13 at 8 μg/ml): >32 µg/mL
MIC ATB combined with Example 14 @8 μg/ml ([6]; with Example 14 at 8 μg/ml): >32 µg/mL
MIC ATB combined with Example 15 @4 μgml ([6]; with Example 15 at 4 μg/ml): >32 µg/mL
MIC ATB combined with Example 16 @4 μg/ml ([6]; with Example 16 at 4 μg/ml): >32 µg/mL
MIC [6, 7]: > 32 µg/mL
